In brackets after ≈: the same amount, converted by molar mass.
How the values were obtained:
SMMC-7721 = assay: Cytotoxicity again human SMMC7721 cells by MTT method; type: cell-based
Staphylococcus aureus [1] = assay: Antibacterial activity against Staphylococcus aureus ATCC 43300 by XTT dye based assay; type: functional
Staphylococcus aureus [2] = assay: Antibacterial activity against Staphylococcus aureus ATCC 33591 by XTT dye based assay; type: functional
Staphylococcus aureus [3] = assay: Antibacterial activity against Staphylococcus aureus ATCC 25923 by XTT dye based assay; type: functional
Staphylococcus aureus [4] = assay: Antibacterial activity against Staphylococcus aureus ATCC 29213 by XTT dye based assay; type: functional
Enterococcus faecalis = assay: microbe, parasite or virus in culture; type: functional; conditions: ATCC 51299
Description: Antibacterial activity against Enterococcus faecalis ATCC 51299 by XTT dye based assay

Enterococcus faecium = assay: Antibacterial activity against Enterococcus faecium ATCC 35667 by XTT dye based assay; type: functional
Escherichia coli = assay: microbe, parasite or virus in culture; type: functional; conditions: ATCC 25922
Description: Antibacterial activity against Escherichia coli ATCC 25922 by XTT dye based assay

Row | MIC (Staphylococcus aureus [1]) | MIC (Staphylococcus aureus [2]) | MIC (Staphylococcus aureus [3]) | MIC (Staphylococcus aureus [4]) | MIC (Enterococcus faecalis) | MIC (Enterococcus faecium) | MIC (Escherichia coli) | SMILES | IC50 (SMMC-7721)
1 |  |  |  |  |  |  |  | CCCCCC[C@H](C)/C=C(\C)C(=O)O[C@@]1(C)C(=O)C=C2C=C(C3=C(C)C[C@@H](O)CC3=O)OC=C2C1=O | > 10 µM
2 | 25 mg/L (≈ 126 µM) | 25 mg/L (≈ 126 µM) | > 50 mg/L | > 50 mg/L | > 50 mg/L | > 50 mg/L | > 50 mg/L | CCCCCC[C@H](C)/C=C(\C)C(=O)O | 
3 | 12.5 mg/L (≈ 22.4 µM) | 3.13 mg/L (≈ 5.61 µM) | 6.25 mg/L (≈ 11.2 µM) | 12.5 mg/L (≈ 22.4 µM) | 3.13 mg/L (≈ 5.61 µM) | 12.5 mg/L (≈ 22.4 µM) | > 50 mg/L | CCCCCC[C@H](C)/C=C(\C)C(=O)O[C@]1(C)C(=O)C2=COC(c3c(C)cccc3O)=CC2=C(Br)C1=O | > 10 µM
4 | 50 mg/L (≈ 86.9 µM) | 12.5 mg/L (≈ 21.7 µM) | 12.5 mg/L (≈ 21.7 µM) | 25 mg/L (≈ 43.4 µM) | 25 mg/L (≈ 43.4 µM) | 25 mg/L (≈ 43.4 µM) | > 50 mg/L | CCCCCC[C@H](C)/C=C(\C)C(=O)O[C@]1(C)C(=O)C2=COC(C3=C(C)C[C@@H](O)CC3=O)=CC2=C(Br)C1=O | > 10 µM
5 |  |  |  |  |  |  |  | CCCCCC[C@H](C)/C=C(\C)C(=O)O[C@@]1(C)C(=O)C2=COC(c3c(C)cccc3O)=CC2=C(Cl)C1=O | > 10 µM
6 |  |  |  |  |  |  |  | Cc1cccc(O)c1C1=CC2=C(Cl)C(=O)[C@@](C)(O)C(=O)C2=CO1 | > 10 µM
7 |  |  |  |  |  |  |  | CCCCCC[C@H](C)/C=C(\C)C(=O)O[C@@]1(C)C(=O)C=C2C=C(c3c(C)cccc3O)OC=C2C1=O | > 10 µM
8 | 12.5 mg/L (≈ 24.2 µM) | 3.13 mg/L (≈ 6.06 µM) | > 50 mg/L | 12.5 mg/L (≈ 24.2 µM) | 12.5 mg/L (≈ 24.2 µM) | 25 mg/L (≈ 48.4 µM) | > 50 mg/L | CCCCCC[C@H](C)/C=C(\C)C(=O)O[C@@]1(C)C(=O)c2c(cc(O)c3c2C[C@H](O)C[C@]3(C)O)[C@](C)(O)C1=O | 
9 |  |  |  |  |  |  |  | Cc1cccc(O)c1C1=CC2=CC(=O)[C@](C)(O)C(=O)C2=CO1 | > 10 µM
10 |  |  |  |  |  |  |  | CCCCCC[C@H](C)/C=C(\C)C(=O)O[C@@]1(C)C(=O)C2=COC(C3=C(C)CC(O)CC3=O)=CC2=C(Cl)C1=O (some centres not stated) | > 10 µM
11 | > 50 mg/L | > 50 mg/L | > 50 mg/L | > 50 mg/L | > 50 mg/L | > 50 mg/L | > 50 mg/L | CCCCCC[C@H](C)/C=C(\C)C(=O)O[C@@]1(C)C(=O)c2c(cc(O)c3c(C)cccc23)[C@](C)(O)C1=O | 

Row | SMILES | MIC (Staphylococcus aureus [1]) | MIC (Staphylococcus aureus [2]) | MIC (Staphylococcus aureus [3]) | MIC (Staphylococcus aureus [4]) | MIC (Enterococcus faecalis) | MIC (Enterococcus faecium) | MIC (Escherichia coli) | IC50 (SMMC-7721)
12 | Cc1onc(-c2ccccc2)c1C(=O)N[C@@H]1C(=O)N2[C@@H]1SC(C)(C)[C@@H]2C(=O)[O-].[Na+] | > 50 mg/L | > 50 mg/L | 0.2 mg/L | 0.39 mg/L | > 50 mg/L | > 50 mg/L | > 50 mg/L | 
13 | CN[C@H](CC(C)C)C(=O)N[C@H]1C(=O)N[C@@H](CC(N)=O)C(=O)N[C@H]2C(=O)N[C@H]3C(=O)N[C@H](C(=O)N[C@H](C(=O)O)c4cc(O)cc(O)c4-c4cc3ccc4O)[C@H](O)c3ccc(c(Cl)c3)Oc3cc2cc(c3O[C@@H]2O[C@H](CO)[C@@H](O)[C@H](O)[C@H]2O[C@H]2C[C@](C)(N)[C@H](O)[C@H](C)O2)Oc2ccc(cc2Cl)[C@H]1O.Cl [VANCOMYCIN HYDROCHLORIDE] | 0.78 mg/L | 1.56 mg/L | 0.78 mg/L | 0.78 mg/L | > 50 mg/L | 0.78 mg/L | > 50 mg/L | 

— ChEMBL document CHEMBL4330155, “NaBr-Induced Production of Brominated Azaphilones and Related Tricyclic Polyketides by the Marine-Derived Fungus Penicillium janthinellum HK1-6” (J Nat Prod, 2019)
